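Interpolation was linear, between the two tested concentrations surrounding the appropriate level; five concentrations were tested over 48 hours in 96-well plates. TGI: total growth inhibition.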
Tests used:
Experiment in all cases: NCI-60 cell line screen, 48 h
[1] = test system: 786-0 renal
[2] = test system: A498 renal
[3] = test system: ACHN renal
[4] = test system: CAKI-1 renal
[5] = test system: HCT-116 colon
[6] = test system: HOP-62 NSCLC
[7] = test system: K-562 leukemia
[8] = test system: MALME-3M melanoma
[9] = test system: MDA-MB-435
[10] = test system: NCI-H522 lung
[11] = test system: NCI/ADR-RES ovarian
[12] = test system: OVCAR-4 ovarian
[13] = test system: OVCAR-5 ovarian
[14] = test system: SF-268 CNS
[15] = test system: SK-MEL-2 melanoma
[16] = test system: SK-MEL-28 melanoma
[17] = test system: SK-MEL-5 melanoma
[18] = test system: SN12C renal
[19] = test system: SNB-19 CNS

SMILES	TGI [1]	TGI [2]	TGI [3]	TGI [4]	TGI [5]	TGI [6]	TGI [7]	TGI [8]	TGI [9]	TGI [10]	TGI [11]	TGI [12]	TGI [13]	TGI [14]	TGI [15]	TGI [16]	TGI [17]	TGI [18]	TGI [19]
C=C1CC(C)(COc2cc(=O)oc3ccccc23)OC1=O (centres undefined)	11.8 µM	8.74 µM	15.8 µM	6.32 µM	9.64 µM	42.1 µM	6.45 µM	6.6 µM	17.7 µM	5.2 µM	24 µM	16.9 µM	22.3 µM	40.5 µM	11.8 µM	10.8 µM	14.7 µM	21.4 µM	35.5 µM
Cc1cc(C)c(S(=O)(=O)N(CCCN)OCCON(CCCN)S(=O)(=O)c2c(C)cc(C)cc2C)c(C)c1	13.1 µM	53.9 µM	66.1 µM	> 71.4 µM	5.1 µM	11.5 µM	> 100 µM	3.8 µM	> 23.6 µM	13.6 µM	46.6 µM	10.3 µM	4.99 µM	5.37 µM	3.24 µM	31 µM	> 100 µM	> 100 µM	4.37 µM
O=C(/C=C/c1ccc(O)c(O)c1)NC(COC(=O)/C=C/c1ccc(O)c(O)c1)C(=O)O (centres undefined)	> 100 µM	> 100 µM	> 100 µM	> 100 µM	> 100 µM	> 100 µM	> 100 µM	> 100 µM	> 100 µM	> 100 µM	> 100 µM	> 100 µM	> 100 µM	> 100 µM	> 100 µM	> 100 µM	> 100 µM	> 100 µM	> 100 µM
Nc1nc(Br)nc2ncn(C3CC(O)C(CO)O3)c12 (centres undefined)	> 100 µM	> 100 µM	> 100 µM	> 100 µM	> 100 µM	> 100 µM	> 100 µM	> 100 µM	> 100 µM	> 100 µM	> 63.1 µM	> 100 µM	> 100 µM	> 100 µM	> 100 µM	> 100 µM	> 100 µM	> 100 µM	> 100 µM
CCC(c1ccc(OC)cc1)C1NC(=S)NC1=O (centres undefined)	> 50 µM	> 50 µM	> 50 µM	> 50 µM	> 50 µM	> 50 µM	> 50 µM	> 50 µM	> 50 µM	> 50 µM	> 50 µM	> 50 µM	> 50 µM	> 50 µM	> 50 µM	> 50 µM	> 50 µM	> 50 µM	> 50 µM
Cn1nc(-c2ccccc2)c2c(-c3ccccc3)c3cc(Cl)ccc3nc21	> 100 µM	> 100 µM	> 100 µM	> 100 µM	> 100 µM	> 100 µM	> 100 µM	> 100 µM	> 100 µM	> 100 µM	> 25.7 µM	> 100 µM	> 100 µM	> 100 µM	> 100 µM	> 100 µM	> 100 µM	> 100 µM	> 100 µM

Reference: PubChem BioAssay (NCI)
